According to patent publication US20240336617A1, “Substituted Bimane Compounds and Methods of Use Thereof” (THE TRUSTEES OF THE UNIVERSITY OF PENNSYLVANIA, priority 2023, published 2024):

Columns and labels:
[1] = target: T1, αS fibrils (Homo sapiens, UniProt P37840); experiment: Fluorescence lifetime measurements of probes with αS fibrils; type: physicochemical; conditions: for fluorescence lifetime when bound to PFFs: 100 μM αS PFFs; for Fluorescence Lifetime: 100 μM dye and PFFs; for Lifetime: with αS fibrils in PBS buffer, probe and αS fibrils 100 μM
T1 construct: intein-His6 (C, cleaved yes); made in house; host or cells: Escherichia coli BL21
Method: TCSPC measurements of fluorescence lifetime decays for 100 μM dyes in the presence of 100 μM αS fibrils were collected with the PTI Quantamaster™ 40 using a pulsed LED with a maximum emission at 486 nm. Fluorescence emission was collected at the indicated wavelength for each dye with 20 nm slit widths. The IRF was collected under identical conditions. Data analysis was performed with FluoFit software using an exponential decay model.

[2] = target: T1, αS fibrils; experiment: Absorbance spectra with αS fibrils; type: physicochemical; conditions: for λabs / λabs, maximum absorption wavelength: dye 10 μM; for ε / E, molar absorptivity (ε): measured at λabs; for λabs, maximum absorption wavelength / E, molar absorptivity (ε): presence of αS PFFs (+); for λabs, maximum absorption wavelength: PFFs 50 μM, mixture of bound and unbound dye; for increase in molar absorptivity with αS fibrils: presence versus absence of αS fibrils
Method: Absorption measurements were performed using Thermo Scientific Genesys 150 UV Vis spectrometer. Absorption spectra of 10 μM probes (concentrated stock solution prepared as 10 mM in DMSO) (7j, 7k, 7l, and 7m) in PBS buffer were measured in the absence and presence of 50 μM αS fibrils (stock solution 100 μM αS fibrils in PBS buffer).
Absorption measurements were performed using Thermo Scientific Genesys 150 UV Vis spectrometer. Absorption spectra of 10 μM probes (concentrated stock solution prepared as 10 mM in DMSO) (5j and 5k) in PBS buffer were measured in the absence and presence of 50 μM αS fibrils (stock solution 100 μM αS fibrils in PBS buffer).

[3] = target: T1, αS fibrils; experiment: Fluorescence spectra with αS fibrils; type: binding; conditions: for turn on of fluorescence in the presence of αS PFFs: in vitro generated αS PFFs; for Stokes shift: difference between λex and λem; for λem, maximum emission wavelength: bound dye; for λem: PFF 50 μM; for Stokes shift in the presence of PFFs / emission peaks / emission maxima in the presence of PFFs: αS PFFs
Method: Fluorescence measurements were performed using a PTI QuantaMaster™ 40 fluorescence spectrometer. Fluorescence spectra of 10 μM probes (concentrated stock solution prepared as 10 mM in DMSO) (7b, 7c, 7d, 7e, 7f, 7g and 7h) in PBS buffer were measured by excitation at their absorbance maximum wavelength in the absence and presence of 50 μM αS fibrils (stock solution 100 μM αS fibrils in PBS buffer).
Fluorescence spectra with αS fibrils. Fluorescence measurements were performed using a PTI QuantaMaster 40 fluorescence spectrometer. Fluorescence spectra of 10 μM probes (concentrated stock solution prepared as 10 mM in DMSO) (5b-5f and 5h) in PBS buffer were measured by excitation at their absorbance maximum wavelength in the absence and presence of 50 μM αS fibrils (stock solution 100 μM αS fibrils in PBS buffer). […] FIGS. 77A-77F show fluorescence spectra of probes (5b-5f and 5h) with and without αS fibrils. Final concentrations of probes and αS fibrils were 10 μM and 50 μM, respectively. Emission spectra collected at each dye's maximum absorption wavelength. Ex/Em slit widths: 3 nm/3 nm. […] Absorbance is shown in FIG. 78A and FIG. 78B, whereas FIG. 78C and FIG. 78D show excitation spectra of probes 5j and 5k with and without αS fibrils. Final probe and fibrils concentrations were 10 μM and 50 μM, respectively. […] Emission wavelengths were 575 nm for 5j, 580 nm for 5k. Ex/Em slit widths: 3 nm/3 nm. […] Black line indicates incident light (αS fibrils without probe) and blue line indicates sample (αS fibrils with probe). Excitation at λexc=435 nm for 5j and λexc=463 nm for 5k and spectral collection (400-800 nm). Final concentrations of the probe and αS fibrils are the 100 μM. Ex/Em slit widths: 5 nm/5 nm.

[4] = target: T1, αS fibrils; experiment: Excitation spectra with αS fibrils; type: physicochemical; conditions: dye 10 μM; for λex, maximum excitation wavelength: presence of αS PFFs (+), PFFs 50 μM, represents the bound form of dye; for λex: presence of αS PFFs, PFF 50 μM
Method: Excitation spectral measurements were performed using a PTI QuantaMaster™ 40 fluorescence spectrometer. Excitation spectra of 10 μM probes (concentrated stock solution prepared as 10 mM in DMSO) (7j, 7k, 7l, and 7m) in PBS buffer were measured in the absence and presence of 50 μM αS fibrils (stock solution 100 μM αS fibrils in PBS buffer).
Excitation spectra with αS fibrils. Excitation spectral measurements were performed using a PTI QuantaMaster 40 fluorescence spectrometer. Excitation spectra of 10 μM probes (concentrated stock solution prepared as 10 mM in DMSO) (5j and 5k) in PBS buffer were measured in the absence and presence of 50 μM αS fibrils (stock solution 100 μM αS fibrils in PBS buffer).

[5] = Molar absorptivity determination; type: physicochemical; conditions: for E, molar absorptivity (ε): absence of αS PFFs (−), measured at λabs;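 for all read-outs here: molar absorptivity derived from UV-Vis absorbance spectra recorded for each derivative on a spectrometer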
Method: The absorbance spectrum of each derivative (150 μL) was measured on a Thermo Scientific Genesys 150 UV-Vis spectrometer, using 50:50 ACN/PBS as a blank.
Molar absorptivity determination. […] The absorbance spectrum of each derivative (150 μL) was measured on a Thermo Scientific Genesys 150 UV-Vis spectrometer, using 50:50 ACN/PBS as a blank.

[6] = Solvatochromic measurements; type: physicochemical; conditions: organic solvents of different polarity
Method: The remaining 850 μL solution was used to obtain fluorescence images under a handheld 365 nm UV lamp.
Solvatochromic measurements. […] The remaining 850 μL solution was used to obtain fluorescence images under a handheld 365 nm UV lamp.

[7] = Fluorescence (emission) measurements; type: physicochemical; conditions: for Emission λem: Table S12; for maximum emission wavelength (λem): 50:50 ACN/PBS, excitation at λabs;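 for all read-outs here: fluorescence emission spectra recorded on a spectrofluorometer, with each compound excited at its own absorption maximum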
Method: The fluorescence spectrum of each derivative (150 μL) was measured on a Photon Technology International (PTI) QuantaMaster™ 40 fluorescence spectrometer by excitation at the maximum absorption wavelength for each compound.
The fluorescence spectrum of each derivative (150 μL) was measured on a Photon Technology International (PTJ) QuantaMaster™ 40 fluorescence spectrometer by excitation at the maximum absorption wavelength for each compound.

[8] = Absorbance measurements (UV-Vis); conditions: for Absorbance Wavelength: ACN:PBS buffer (50:50 v/v), Table S14; for λabs, maximum absorption wavelength: absence of αS PFFs (−), dye 10 μM
[9] = test system: αS fibrils versus Aβ1-42 fibrils; experiment: Amyloid selectivity by plate reader, αS versus Aβ1-42 fibrils; type: binding; set-up: fluorescence turn-on with αS relative to Aβ1-42: dose or concentration left out as unconfirmed
Method: Experiments were performed on the Tecan Spark in Greiner 96 well flat black ½ area plates using the following parameters: excitation and emission band widths 5 nm, lag time 0 μs, integration time 40 μs. A 10 mM DMSO stock solution of probes (7j-7m) and 100 μM stock of αS fibrils were used in the study described herein.

[10] = presence of αS PFFs (+), dye 10 μM, PFFs 50 μM
[11] = ACN/PBS buffer (1:1 v/v), pH 7.4
[12] = in ACN, at maximum absorption wavelength
[13] = 25 μM in ACN/PBS buffer (1:1 v/v), pH 7.4

| Structure (SMILES) | fluorescence lifetime when bound to PFFs [1] [ns] | Fluorescence Lifetime ([1]; presence of αS PFFs (+)) [ns] | Fluorescence Lifetime ([1]; presence of αS PFFs) [ns] | Lifetime [1] [ns] | λabs ([2]; absence of αS PFFs) [nm] | ε ([2]; absence of αS PFFs) [M⁻¹ cm⁻¹] | λabs, maximum absorption wavelength [2] [nm] | E, molar absorptivity (ε) [2] [M⁻¹ cm⁻¹] | λabs ([2]; presence of αS PFFs, PFF 50 μM) [nm] | ε ([2]; presence of αS PFFs) [M⁻¹ cm⁻¹] | increase in molar absorptivity with αS fibrils [2] [fold] | turn on of fluorescence in the presence of αS PFFs [3] | Stokes shift [3, 10] [nm] | λem, maximum emission wavelength [3, 10] [nm] | Stokes shift ([3]; presence of αS PFFs) [nm] | λem ([3]; presence of αS PFFs, dye 10 μM) [nm] | Stokes shift in the presence of PFFs [3] [nm] | λex, maximum excitation wavelength [4] [nm] | λex [4] [nm] | Molar Absorptivity (ε) [5, 11] [M⁻¹ cm⁻¹] | other results |
| --- | --- | --- | --- | --- | --- | --- | --- | --- | --- | --- | --- | --- | --- | --- | --- | --- | --- | --- | --- | --- | --- |
| Cc1c(C)n2c(/C=C/c3ccc(N)cc3)c(C)c(=O)n2c1=O [Compound 7j, (E)-3-(4-aminostyryl)-2,5,6-trimethyl-1H,7H-pyrazolo[1,2-a]pyrazole-1,7-dione] | 1.90 | 1.90 | 1.90 | 1.90 ± 0.01 | 372 | 15385 | 359 | 45956 | 359 | 45956 | 3 | significant turn-on of orange fluorescence | 140 | 575 | 140 | 575 | 140 | 435 | 435 | 30834 | emission peaks / emission maxima in the presence of PFFs ([3]; listed as 5j): 575 nm; E, molar absorptivity (ε) [5]: 15385 M⁻¹ cm⁻¹; Molar Absorptivity (ε) [5, 12]: 32091 M⁻¹ cm⁻¹; solvatochromism / environmental sensitivity [6]: showed sensitivity to solvent polarity; Emission λmax ([7]; 25 μM in ACN): 540 nm; Emission λmax [7, 13]: 583 nm; Emission λem ([7]; 25 μM in ACN): 540 nm; maximum emission wavelength (λem) [7]: 583 nm; Stokes shift ([7]; ACN/PBS buffer (1:1 v/v)): 198 nm; Stokes shift ([7]; in ACN): 162 nm; Absorbance λmax ([8]; 25 μM in ACN): 378 nm; Absorbance λmax [8, 13]: 385 nm; Absorbance Wavelength [8]: 385 nm; λabs, maximum absorption wavelength [8]: 372 nm |
| Cc1c(C)n2c(/C=C/c3ccc(N(C)C)cc3)c(C)c(=O)n2c1=O [Compound 7l, (E)-3-(4-(dimethylamino)styryl)-2,5,6-trimethyl-1H,7H-pyrazolo[1,2-a]pyrazole-1,7-dione] | 2.27 | 2.27 | 2.27 | 2.27 ± 0.01 | 393 | 20071 | 386 | 43864 | 386 | 43864 | 2.2 | significant turn-on of orange fluorescence | 117 | 580 | 117 | 580 | 117 | 463 | 463 | 30420 | emission maximum bound to αS [3]: 584 nm; emission peaks / emission maxima in the presence of PFFs [3]: 580 nm; E, molar absorptivity (ε) [5]: 20071 M⁻¹ cm⁻¹; Molar Absorptivity (ε) [5, 12]: 24742 M⁻¹ cm⁻¹; fluorescence turn-on with αS relative to Aβ1-42 [9]: 5.2 fold; fluorescence turn on with αS relative to Aβ1-42 ([9]; 5 μM fibril concentrations, probe 1 μM): 5 fold; emission span across solvents (solvatochromism) [6]: 490-590 nm; solvatochromism / environmental sensitivity [6]: high level of solvatochromism; Emission λmax ([7]; 25 μM in ACN): 568 nm; Emission λmax [7, 13]: 604 nm; Emission λem ([7]; 25 μM in ACN): 568 nm; maximum emission wavelength (λem) [7]: 604 nm; Stokes shift ([7]; ACN/PBS buffer (1:1 v/v)): 186 nm; Stokes shift ([7]; in ACN): 166 nm; Absorbance λmax ([8]; 25 μM in ACN): 402 nm; Absorbance λmax [8, 13]: 418 nm; λabs ([8]; ACN/PBS): 418 nm; Absorbance Wavelength [8]: 418 nm; λabs, maximum absorption wavelength [8]: 393 nm |
